# Assay results reported in patent US20020045664A1, “Estrogen mimetics lacking reproductive tract effects” (The University of Georgia Research Foundation, Inc, priority 1999, published 2002).
# Entries after “also recorded” stand apart in the source; their conditions may differ. Marks after values point to notes of the source that are not given here.
# Columns and labels:
# OVX rat [1] = assay: Serum rat osteocalcin radioimmunoassay in OVX rats; format: in vivo; settings: for increase in serum OC: OVX animals, with respect to OVX vehicle controls; for Relative Serum OC Level, mean (SD): relative to OVX-17β-estradiol treated group (=100)
# Method: (§1) In the first experiment 50 female Sprague-Dawley rats that were approximately 90 days of age and weighed an average of 240 g at the beginning of the study were used. Animal care and handling was carried out solely at the AAALAC accredited animal facility at the University of Georgia College of Pharmacy, in accordance with a protocol approved by the University of Georgia Institutional Animal Care and Use Committee. On the day of surgery (day 0), all rats were anesthetized with an intraperitoneal (i.p.) injection of ketamine hydrochloride and xylazine at doses of 50 mg/kg body weight and 10 mg/kg body weight, respectively. Ten rats were sham-operated during which the ovaries were exteriorized but replaced intact. Bilateral ovariectomies were performed in the remaining 40 rats from a dorsal approach. Each rat was housed individually at 25° C. with a light/dark cycle of 13 hours/11 hours. Food (Teklad 22/5 Rodent Diet, Madison, Wis.), with calcium and phosphate contents of 0.95% and 0.67%, respectively, was available ad libitum to all animals.
# (§2) Sham-operated rats (N=10) and one of the four groups of OVX rats (N=10) were injected subcutaneously (s.c.) with vehicle (5% benzyl alcohol in corn oil) 5 days per week for 5 weeks. […] The above treatments were initiated on the first day after surgery. The dose level of 17β-estradiol was believed to be optimal based on earlier studies (T. Wronski et al., Endocrinology 123:681-686 (1988)). […] Each rat was injected s.c. with demeclocycline and calcein (Sigma Chemical Co., St. Louis, Mo.) at a dose of 15 mg/kg body weight on the 10th and 3rd days before sacrifice, respectively, to label sites of bone formation.
# (§3) A second experiment, using 40 animals, was performed in exactly the same manner described above, in which effects of the s.c. administration of 3.7 mg/kg/day of 4HTA to one group of OVX animals was compared to the effects of vehicle or 17β-estradiol in three other groups (vehicle treated sham OVX, vehicle treated OVX, and 17β-estradiol-treated OVX rats).
# (§4) All rats were sacrificed by exsanguination from the abdominal aorta under ketamine/xylazine anesthesia. Failure to detect ovarian tissue and observation of marked atrophy of the uterine horns confirmed the success of ovariectomy. The body weight of each animal was recorded, as was uterine wet weight. Blood samples were allowed to coagulate at room temperature (2 hours) in a Vacutainer tube. Serum was obtained by centrifugation for 10 minutes at 3000 rpm, and samples were stored at −80° C. until analyzed. The right tibia was removed at necropsy, dissected free of muscle, and cut in half cross-sectionally with a hand-held saw (Dremel Moto Tool, Racine, Wis.). The bone samples were then placed in 10% phosphate-buffered formalin for 24 hours for tissue fixation.
# Materials, as well as standard protocols for their use, were obtained from Biomedical Technologies, Inc., Stoughton Mass. Serum samples from each member of the different treatment groups were diluted 1:20. Duplicate aliquots (100 μL) of each diluted sample were incubated in an orbital shaker at 80 rpm ([…]) for 16 hours with the first antibody and nonimmune serum in RIA buffer (final volume 0.5 mL). An aliquot of [^125I]-osteocalcin (10 nCi, 0.034 ng) in 100 μL of RIA buffer was then added to each tube and incubation was continued for 24 hours. Then the second (precipitating) antibody was added in 1 mL of modified buffer, and incubation was continued for 4 hours. Tubes were then centrifuged at 1500×g for 15 minutes. Pellets were washed with cold distilled water and recentrifuged as before. Supernatant was decanted and radioactivity in pellets was determined using a gamma counter. Serum osteocalcin levels were determined by comparing the sample values (cpm) to the linear region of a standard curve of cpm/pellet vs. the amount of osteocalcin present, obtained from incubations to which known amounts (0-0.35 ng) of osteocalcin had been added. […]
# estrogen receptor = estrogen receptor (Homo sapiens, UniProt P03372); settings: cited from earlier work
# OVX rat [2] = assay: OVX rat: body weight and uterine wet weight; format: in vivo; settings: for greater uterine weight compared to vehicle-treated OVX animals: 17β-estradiol: average of both experiments, 4HTA: vs respective OVX vehicle controls; for Body Weight, mean (SD) / Uterine Weight, mean (SD): OVX rats, 17β-estradiol 10 μg/kg/day; for Body Weight, mean (SD): s.c. 5 days/week for 5 weeks; for increase in overall body weight after ovariectomy: five-week course of the two studies, subcutaneous five days per week; for Uterine Weight, mean (SD): s.c. 5 weeks
# Method: as §1, §2, §3, §4
# MCF-7 cells = settings: cited from earlier work; for maximal growth-stimulatory effect, as a percent of that of estradiol: MCF-7 cell proliferation assay; for EC50: concentration at which growth stimulation was 50% maximal, read-out: MCF-7 Cell Growth EC50
# [3] = tested on: MCF 7 human breast cancer cells; settings: estradiol-stimulated MCF-7 proliferation; cited from earlier work
# OVX rat [4] = assay: OVX rat: cortical bone histomorphometry, tibial diaphysis; format: in vivo; settings: OVX rats
# Method: In the first experiment 50 female Sprague-Dawley rats that were approximately 90 days of age and weighed an average of 240 g at the beginning of the study were used. Animal care and handling was carried out solely at the AAALAC accredited animal facility at the University of Georgia College of Pharmacy, in accordance with a protocol approved by the University of Georgia Institutional Animal Care and Use Committee. On the day of surgery (day 0), all rats were anesthetized with an intraperitoneal (i.p.) injection of ketamine hydrochloride and xylazine at doses of 50 mg/kg body weight and 10 mg/kg body weight, respectively. […]
# Bone measurements were performed with the Bioquant Bone Morphometry System (R&M Biometrics Corp., Nashville, Tenn.). Cortical bone tissue area and bone marrow area were measured in one section per animal at a magnification of 20×. Cortical bone area was calculated by subtracting marrow area from cortical bone tissue area. Cortical width was measured from the periosteal to the endocortical surfaces at four equally spaced sites at the anterior (cranial), posterior (caudal), medial, and lateral aspects of each cross-section. […]
# Fluorochrome-based indices of bone formation were measured under UV illumination at magnifications of 100× and 200× for mineralizing surface and mineral apposition rate, respectively. […]
# OVX rat [5] = assay: Serum cholesterol in OVX rats; format: in vivo; settings: for Serum Cholesterol, mean (SD): experiment 1
# Method: as §1, §2
# All rats were sacrificed by exsanguination from the abdominal aorta under ketamine/xylazine anesthesia. Failure to detect ovarian tissue and observation of marked atrophy of the uterine horns confirmed the success of ovariectomy. The body weight of each animal was recorded, as was uterine wet weight. […] Serum was obtained by centrifugation for 10 minutes at 3000 rpm, and samples were stored at −80° C. until analyzed. […]
# OVX rat [6] = assay: OVX rat: cancellous bone histomorphometry, proximal tibial metaphysis; format: in vivo; settings: OVX rats; for osteoblast surface: 35 days after surgery; for Mineral apposition rate (MAR): 35 days postsurgery
# Method: as §1, §2, §3
# The proximal halves of the tibiae were dehydrated by immersion in ethanol, and embedded undecalcified in methyl methacrylate. Longitudinal sections (4- and 8-μm thick) were cut with AO Autocut/Jung 1150 or 2050 microtomes. The 4-μm thick sections were stained according to the Von Kossa method with a tetrachrome counterstain (Polysciences Inc., Warrington, Pa.). Bone measurements were performed in cancellous bone tissue of the proximal tibial metaphysis beginning at distances 1 mm distal to the growth plate-metaphyseal junction to exclude the primary spongiosa. In general, two sections of the proximal tibia, with a total of 40-50 mm of cancellous bone perimeter, were sampled in each animal with an appreciable amount of cancellous bone. Additional sections were sampled in osteopenic animals to approximate the cancellous bone perimeter sampled in animals with greater cancellous bone mass.
# Bone measurements were performed with the Bioquant Bone Morphometry System (R&M Biometrics Corp., Nashville, Tenn.) as described in T. Wronski et al. (Calcif. Tissue Int. 53:210-216 (1993)). Cancellous bone volume as a percentage of bone tissue area and osteoblast and osteoclast surfaces as percentages of total cancellous perimeter were measured in 4-μm thick, stained sections.
# Fluorochrome-based indices of bone formation were measured in unstained, 8-μm-thick sections of the proximal tibial metaphysis. The percentage of cancellous bone surface with a double fluorochrome label (mineralizing surface) and mineral apposition rate were measured with the Bioquant system. In addition, bone formation rate (tissue level, total surface referent) was calculated by multiplying mineralizing surface by mineral apposition rate (H. Frost, Bone histomorphometry: analysis of trabecular bone dynamics. In: Recker R. R., Ed. Bone Histomorphometry: Techniques and Interpretation. Boca Raton, Fla.: CRC Press; 1983; 109-132).
# [7] = tested on: rat uterus (uterine weight gain); set-up: Rat Uterotrophic Assay % Efficacy: concentration or dose not given beside the values; settings: cited from earlier work; for Rat Uterotrophic Assay ED50: dose at which uterine weight gain was 50% maximal; for Rat Uterotrophic Assay % Efficacy: in vivo
# OVX rat [8] = assay: OVX rat: body weight and uterine wet weight; format: in vivo
# [9] = tested on: mouse uterus (uterine weight gain); settings: dose at which uterine weight gain was 50% maximal; cited from earlier work
# [10] = experiment 2, 4HTA 3.7 mg/kg/day
# [11] = experiment 1, HPPA 3.6 mg/kg/day
# Sequence of estrogen receptor (P03372 whole entry): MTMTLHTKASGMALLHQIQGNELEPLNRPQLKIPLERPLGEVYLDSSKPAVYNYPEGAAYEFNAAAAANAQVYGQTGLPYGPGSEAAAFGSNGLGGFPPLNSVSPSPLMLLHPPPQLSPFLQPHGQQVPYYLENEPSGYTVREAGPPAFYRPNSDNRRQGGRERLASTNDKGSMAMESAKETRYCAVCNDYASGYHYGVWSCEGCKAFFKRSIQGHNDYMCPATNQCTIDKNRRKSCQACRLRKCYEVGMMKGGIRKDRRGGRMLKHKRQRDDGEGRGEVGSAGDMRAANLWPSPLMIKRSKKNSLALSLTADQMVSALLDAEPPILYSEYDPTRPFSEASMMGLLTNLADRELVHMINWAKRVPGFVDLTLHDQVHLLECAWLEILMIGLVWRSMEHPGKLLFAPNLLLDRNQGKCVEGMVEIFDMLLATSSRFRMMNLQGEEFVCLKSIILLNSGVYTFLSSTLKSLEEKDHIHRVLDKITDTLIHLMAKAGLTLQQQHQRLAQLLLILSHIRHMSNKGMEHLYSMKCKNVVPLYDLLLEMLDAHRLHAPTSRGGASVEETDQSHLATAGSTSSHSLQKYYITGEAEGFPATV
structure (smiles),measurement,setting,value
"CCC(=C(c1ccc(O)cc1)c1ccc(OCC(=O)O)cc1)c1ccccc1 [4HTA, (E,Z)-2-{4-[1-(p-hydroxyphenyl)-2-phenyl]-1-butenyl}phenoxyacetic acid]",increase in serum OC,OVX rat [1],did not differ
same,"Relative Serum OC Level, mean (SD)",OVX rat [1]; experiment 2,188 (42)^c
same,relative estrogen receptor binding affinity (RBA),estrogen receptor,20% of estradiol binding affinity
same,greater uterine weight compared to vehicle-treated OVX animals,OVX rat [2],25%
same,"Body Weight, mean (SD)",OVX rat [2]; [10],"305 (12)^b,c g"
same,increase in overall body weight after ovariectomy,OVX rat [2],not observed
same,"maximal growth-stimulatory effect, as a percent of that of estradiol",MCF-7 cells,79%
same,estrogen antagonist activity in growth inhibition assay in the presence of estrogen,[3],weak antagonist potency; also recorded: weakly inhibits
C[C@]12CC[C@@H]3c4ccc(O)cc4CC[C@H]3[C@@H]1CC[C@@H]2O [17β-estradiol],periosteal bone formation rate,OVX rat [4],inhibited periosteal bone formation rate to a level below that of vehicle-treated control rats
same,"Serum Cholesterol, mean (SD)",OVX rat [5],80 (3.5)^c mg/dL
same,increase in serum OC,OVX rat [1],prevented this increase
same,"Relative Serum OC Level, mean (SD)",OVX rat [1]; experiment 1,100 (33)^b
same,"Relative Serum OC Level, mean (SD)",OVX rat [1]; experiment 2,100 (16)^b
same,osteoblast surface,OVX rat [6]; experiment 1,suppressed at the control level
same,Mineral apposition rate (MAR),OVX rat [6]; experiment 1,maintained at the control level
same,mineralizing surface (cancellous),"OVX rat [6]; experiment 1, vs vehicle-treated control rats",significantly lower
same,cancellous bone volume,"OVX rat [6]; second experiment, mean ±SD",24.0±5.5%
same,greater uterine weight compared to vehicle-treated OVX animals,OVX rat [2],167%
same,"Uterine Weight, mean (SD)",OVX rat [2]; [11],"269 (48)^b,c mg"
same,"Body Weight, mean (SD)",OVX rat [2]; [11],310 (24)^b g
same,"Uterine Weight, mean (SD)",OVX rat [2]; [10],"225 (30)^b,c mg"
same,"Body Weight, mean (SD)",OVX rat [2]; [10],303 (12)^b g
same,increase in overall body weight after ovariectomy,OVX rat [2],not observed
same,MCF-7 Cell Growth % Efficacy,MCF-7 cells,100%
same,EC50,MCF-7 cells,0.02 nM
same,Rat Uterotrophic Assay ED50,[7],0.16 µg/day
same,Rat Uterotrophic Assay % Efficacy,[7],100%
"O=C(O)COc1ccc(C(Cc2ccccc2)c2ccc(O)cc2)cc1 (stereo not shown) [HPPA, 4-[1-(4-hydroxyphenyl)-2-phenylethyl]phenoxyacetic acid]","Rat Uterotrophic Assay ED50 (HPPA, Ex. III)",OVX rat [8]; s.c.,>3400 µg/day
same,Emax,"OVX rat [8]; sc, read-out: Rat Uterotrophic Assay % Efficacy (HPPA), s.c., Ex. III",0%
same,periosteal bone formation rate,OVX rat [4],did not inhibit
same,reduction in serum cholesterol with respect to vehicle-treated OVX animals,OVX rat [5]; 10 μmol/kg sc,10%
same,"Serum Cholesterol, mean (SD)",OVX rat [5],"72 (1.9)^b,c,d mg/dL"
same,increase in serum OC,OVX rat [1],34%
same,osteoblast surface,OVX rat [6]; experiment 1,partially suppressed
same,Mineral apposition rate (MAR),OVX rat [6]; experiment 1,no effect
same,greater uterine weight compared to vehicle-treated OVX animals,OVX rat [2],did not differ appreciably
same,"Body Weight, mean (SD)",OVX rat [2]; [11],"342 (23)^b,c g"
same,increase in overall body weight after ovariectomy,OVX rat [2],not observed
same,"maximal growth-stimulatory effect, as a percent of that of estradiol",MCF-7 cells,102%
same,MCF-7 Cell Growth % Efficacy,MCF-7 cells,100%
same,EC50,MCF-7 cells,16 nM
same,estrogen antagonist activity in growth inhibition assay in the presence of estrogen,[3],did not function as an estrogen antagonist; also recorded: no activity as an antiestrogen
COc1ccc(C(Cl)=C(c2ccc(OC)cc2)c2ccc(OC)cc2)cc1 [chlorotrianisene],"Uterotrophic Assay ED50, determined in the mouse",[9],40^c μg/day
same,MCF-7 Cell Growth % Efficacy,MCF-7 cells,89%
same,EC50,MCF-7 cells,28 nM
same,Rat Uterotrophic Assay % Efficacy,[7],100%
CC/C(=C(/c1ccccc1)c1ccc(OCCN(C)C)cc1)c1ccccc1 [cis-tamoxifen],MCF-7 Cell Growth % Efficacy,MCF-7 cells,100%
same,Rat Uterotrophic Assay ED50,[7],40 µg/day
same,Rat Uterotrophic Assay % Efficacy,[7],52%
CC/C(=C(/CC)c1ccc(O)cc1)c1ccc(O)cc1 [diethylstilbestrol],"Uterotrophic Assay ED50, determined in the mouse",[9],3^c μg/day
same,MCF-7 Cell Growth % Efficacy,MCF-7 cells,100%
same,Rat Uterotrophic Assay % Efficacy,[7],100%
"CC/C(=C(\c1ccccc1)c1ccc(OCCN(C)C)cc1)c1ccccc1 [trans-tamoxifen, (Z)-2-[4-(1,2-diphenyl-1-butenyl)phenoxy]-N,N-dimethylethanamine]",MCF-7 Cell Growth % Efficacy,MCF-7 cells,21%
same,Rat Uterotrophic Assay ED50,[7],10 µg/day
same,Rat Uterotrophic Assay % Efficacy,[7],12%
